This note sets out measurements from patent US12011444B2, “N-substituted indole derivatives as PGE2 receptor modulators” (Idorsia Pharmaceuticals Ltd, priority 2015, dated 2024).

The target in one assay is EP4 (Homo sapiens (Human), UniProt P35408). The assay can be described thus: hEP4 cAMP assay (BT549 breast cancer cells, HTRF cAMP). It is filed as cell-based. The conditions noted are these: antagonistic activity; mean values where measured multiple times. On the procedure:
Plate is pre-incubated 45 minutes at room temperature. Subsequently, 2.5 microliters of PGE2 (final conc. 6 nM) are transferred into the assay plate. Plate is incubated 30 minutes at room temperature.
(In general: cAMP levels reflect the balance of adenylyl cyclase and phosphodiesterase activity.)

The target of another assay is EP2 (Homo sapiens (Human), UniProt P43116).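 Also: antagonism of PGE2-stimulated cAMP accumulation in SF295 human glioblastoma cells with endogenous EP2, cAMP read by HTRF, expressed relative to DMSO control.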
Chain of EP2 (P43116 whole entry): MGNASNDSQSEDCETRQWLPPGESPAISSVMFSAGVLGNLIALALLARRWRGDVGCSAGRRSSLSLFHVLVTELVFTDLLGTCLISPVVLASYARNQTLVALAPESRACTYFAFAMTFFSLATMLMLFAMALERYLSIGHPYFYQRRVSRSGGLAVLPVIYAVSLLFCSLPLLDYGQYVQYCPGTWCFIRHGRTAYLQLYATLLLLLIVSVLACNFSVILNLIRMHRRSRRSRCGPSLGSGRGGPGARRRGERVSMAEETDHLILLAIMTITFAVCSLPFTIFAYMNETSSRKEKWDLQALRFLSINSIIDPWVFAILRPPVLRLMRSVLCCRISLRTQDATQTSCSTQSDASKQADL

Chain of EP4 (P35408 whole entry): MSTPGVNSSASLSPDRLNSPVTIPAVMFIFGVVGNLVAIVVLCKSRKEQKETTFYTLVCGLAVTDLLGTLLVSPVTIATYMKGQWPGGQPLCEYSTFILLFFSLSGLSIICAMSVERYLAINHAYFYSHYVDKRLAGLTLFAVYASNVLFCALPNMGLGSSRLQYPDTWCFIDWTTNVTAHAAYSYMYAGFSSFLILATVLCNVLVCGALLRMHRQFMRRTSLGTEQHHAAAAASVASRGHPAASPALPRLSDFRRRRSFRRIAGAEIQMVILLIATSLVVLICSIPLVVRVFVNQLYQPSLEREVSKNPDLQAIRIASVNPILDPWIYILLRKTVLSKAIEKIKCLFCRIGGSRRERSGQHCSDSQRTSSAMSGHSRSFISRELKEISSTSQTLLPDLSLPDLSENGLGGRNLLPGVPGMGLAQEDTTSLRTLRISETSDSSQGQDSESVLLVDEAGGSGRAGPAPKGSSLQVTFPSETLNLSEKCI

Usually IC50 stands for the concentration that inhibits the measured activity by half. A higher IC50 goes with weaker potency in that assay. Consider `Cc1cc2c(F)c(F)cc(Cl)c2n1CCNc1cc(-c2ccc(C(=O)O)c(SC(C)C)c2)ncn1` [compound 500], for which the IC50 worked out at 0.816 µM on EP4 and 0.017 µM against EP2.

On to `Cc1c(F)cc(F)c2c1cc(C)n2CCNc1cc(-c2ccc(C(=O)O)c(CC(C)C)c2)ncn1` [compound 501], for which the values for the IC50 against EP4 and on EP2 were 0.069 µM and 0.042 µM, respectively.

As for `Cc1cc(F)c(F)c2c1cc(C)n2CCNc1cc(-c2ccc(C(=O)O)c(CC(C)C)c2)ncn1` [compound 502], the values for the IC50 at EP4 and against EP2 were 0.114 µM and 0.149 µM, respectively.

Consider `Cc1nc(NCCn2c(C)cc3c(C)cc(F)cc32)cc(-c2ccc(C(=O)O)c(CC(C)C)c2)n1` [compound 503], for which the IC50 at EP4 is 0.499 µM; against EP2, 0.058 µM.

In the case of `Cc1c(F)cc(Cl)c2c1cc(C)n2CCNc1cc(-c2ccc(C(=O)O)c(SC(C)C)c2)ncn1` [compound 504], the values for the IC50 against EP4 and at EP2 were 0.535 µM and 0.103 µM, respectively.

Take `Cc1cc2c(F)cc(F)c(F)c2n1CCNc1cc(-c2ccc(C(=O)O)c(CC(C)C)c2)ncn1` [compound 505]: the results for the IC50 against EP4 and against EP2 were 0.671 µM and 0.021 µM, respectively.

On to `Cc1cc2c(F)c(F)cc(F)c2n1CCNc1cc(-c2ccc(C(=O)O)c(CC(C)C)c2)ncn1` [compound 506], for which the IC50 worked out at 0.113 µM against EP4 and 0.012 µM at EP2.

For `COc1ccc(C)c2c1cc(C)n2CCNc1cc(-c2ccc(C(=O)O)c(CC(C)C)c2)ncn1` [compound 507], the IC50 against EP4 came out at 0.163 µM; against EP2, 0.018 µM.

Consider `Cc1ccc(F)c2c1cc(C)n2CCNc1cc(-c2ccc(C(=O)O)c(OC(F)(F)F)c2)ncn1` [compound 508], for which the results for the concentration for half-maximal inhibition (IC50) against EP4 and on EP2 were 0.583 µM and 0.037 µM, respectively.

Consider `COc1c(F)cc(Cl)c2c1cc(C)n2CCNc1cc(-c2cc(F)c(C(=O)O)c(SC)c2)ncn1` [compound 509], for which the IC50 against EP4 turned out to be 0.684 µM; on EP2, 0.11 µM.

Turning to `Cc1c(F)cc(F)c2c1cc(C)n2CCNc1cc(-c2ccc(C(=O)O)c(OC(F)F)c2)ncn1` [compound 510], the IC50 came out at 0.216 µM at EP4 and 0.02 µM at EP2.

As to `CCCc1cc(-c2cc(NCCn3c(C)cc4c(OC)cc(Cl)cc43)ncn2)cc(F)c1C(=O)O` [compound 511], the IC50 on EP4 was 0.158 µM; against EP2 it was 0.018 µM.

For the compound `CCCc1cc(-c2cc(NCCn3c(C)cc4c(OC)ccc(Cl)c43)ncn2)cc(F)c1C(=O)O` [compound 512], the results for the IC50 at EP4 and at EP2 were 0.253 µM and 0.021 µM, respectively.

As for `CCCc1cc(-c2cc(NCCn3c(C)cc4c(OC)ccc(Cl)c43)ncn2)cc(Cl)c1C(=O)O` [compound 513], the figures for the IC50 at EP4 and at EP2 were 0.13 µM and 0.024 µM, respectively.

`CCCc1cc(-c2cc(NCCn3c(C)cc4c(OC)ccc(F)c43)ncn2)cc(Cl)c1C(=O)O` [compound 514]: the IC50 stood at 0.056 µM against EP4 and 0.005 µM against EP2.

Take `CCCc1cc(-c2cc(NCCn3c(C)cc4c(OC)ccc(F)c43)ncn2)cc(F)c1C(=O)O` [compound 515]: the IC50 at EP4 worked out at 0.069 µM; against EP2, 0.008 µM.

In the case of `CCCc1cc(-c2cc(NCCn3c(C)cc4cc(OC)cc(F)c43)ncn2)cc(F)c1C(=O)O` [compound 516], the results for the half-inhibitory concentration (IC50) at EP4 and on EP2 were 0.451 µM and 0.324 µM, respectively.

Turning to `CCCc1cc(-c2cc(NCCn3c(C)cc4c(OC)c(F)ccc43)ncn2)cc(Cl)c1C(=O)O` [compound 517], the IC50 against EP4 amounted to 0.373 µM; against EP2, 0.097 µM.

Take `CCCc1cc(-c2cc(NCCn3c(C)cc4c(OC)cc(Cl)cc43)ncn2)cc(Cl)c1C(=O)O` [compound 518]: the IC50 against EP4 was 0.04 µM; on EP2, 0.011 µM.

Regarding `CCCc1cc(-c2cc(NCCn3c(C)cc4c(OC)cc(F)cc43)ncn2)cc(Cl)c1C(=O)O` [compound 519], the values for the IC50 at EP4 and on EP2 were 0.034 µM and 0.005 µM, respectively.

Regarding `CCCc1cc(-c2cc(NCCn3c(C)cc4c(OC)c(F)ccc43)ncn2)cc(F)c1C(=O)O` [compound 520], the 50% inhibitory concentration (IC50) against EP4 was found to be 0.482 µM; on EP2 it was 0.082 µM.

On to `CCCc1cc(-c2cc(NCCn3c(C)cc4c(OC)cc(F)cc43)ncn2)cc(F)c1C(=O)O` [compound 521], for which the values for the IC50 at EP4 and on EP2 were 0.064 µM and 0.017 µM, respectively.

As to `CCCOc1cc(-c2cc(NCCn3c(C)cc4c(C)cc(Cl)cc43)ncn2)cc(Cl)c1C(=O)O` [compound 522], the IC50 on EP4 turned out to be 0.217 µM; at EP2, 0.021 µM.

As for `CCCOc1cc(-c2cc(NCCn3c(C)cc4c(C)cc(F)cc43)ncn2)cc(Cl)c1C(=O)O` [compound 523], the IC50 was 0.141 µM against EP4 and 0.035 µM against EP2.

`CCCOc1cc(-c2cc(NCCn3c(C)cc4c(C)cc(F)cc43)ncn2)cc(F)c1C(=O)O` [compound 524]: the values for the IC50 at EP4 and against EP2 were 0.377 µM and 0.036 µM, respectively.

On to `COc1cc(F)c(F)c2c1cc(C)n2CCNc1cc(-c2cc(C(F)(F)F)c(C(=O)O)s2)ncn1` [compound 525], for which the IC50 is 0.014 µM on EP4 and 0.038 µM at EP2.

For the compound `Cc1cc(F)cc2c1cc(C)n2CCNc1cc(-c2ccc(C(=O)O)c(OCC(C)C)c2)ncn1` [compound 526], the IC50 is 0.23 µM against EP4 and 0.01 µM against EP2.

On to `CCCCOc1cc(-c2cc(NCCn3c(C)cc4c(C)cc(F)cc43)ncn2)ccc1C(=O)O` [compound 527], for which the IC50 came out at 0.134 µM against EP4 and 0.008 µM at EP2.

In the case of `COc1cc(F)cc2c1cc(C)n2CCNc1cc(-c2ccc(C(=O)O)c(C(C)(C)C)c2)ncn1` [compound 528], the values for the IC50 on EP4 and against EP2 were 0.151 µM and 0.119 µM, respectively.

For `COc1cc(Cl)cc2c1cc(C)n2CCNc1cc(-c2ccc(C(=O)O)c(CC(C)C)c2)ncn1` [compound 529], the IC50 was found to be 0.11 µM against EP4 and 0.019 µM against EP2.

Consider `COc1cc(F)cc2c1cc(C)n2CCNc1cc(-c2ccc(C(=O)O)c(CC(C)C)c2)ncn1` [compound 530], for which the IC50 against EP4 came to 0.05 µM; against EP2 it was 0.021 µM.

In the case of `CCOc1cc(-c2cc(NCCn3c(C)cc4c(C)ccc(F)c43)ncn2)cc(CC)c1C(=O)O` [compound 532], the figures for the IC50 against EP4 and against EP2 were 0.828 µM and 0.033 µM, respectively.

On to `CCCCOc1cc(-c2cc(NCCn3c(C)cc4c(C)ccc(F)c43)ncn2)ccc1C(=O)O` [compound 533], for which the IC50 against EP4 stood at 0.088 µM; at EP2, 0.003 µM.

With `Cc1ccc(F)c2c1cc(C)n2CCNc1cc(-c2ccc(C(=O)O)c(OCC(C)C)c2)ncn1` [compound 534], the figures for the half-maximal inhibitory concentration (IC50) at EP4 and against EP2 were 0.091 µM and 0.008 µM, respectively.

`COc1ccc(Cl)c2c1cc(C)n2CCNc1cc(-c2ccc(C(=O)O)c(CC(C)C)c2)ncn1` [compound 536]: the IC50 was found to be 0.172 µM against EP4 and 0.027 µM against EP2.

Consider `COc1ccc(F)c2c1cc(C)n2CCNc1cc(-c2ccc(C(=O)O)c(CC(C)C)c2)ncn1` [compound 537], for which the IC50 on EP4 turned out to be 0.081 µM; at EP2, 0.022 µM.

With `COc1c(F)ccc2c1cc(C)n2CCNc1cc(-c2ccc(C(=O)O)c(CC(C)C)c2)ncn1` [compound 538], the IC50 against EP4 was 0.261 µM; against EP2, 0.064 µM.

Turning to `COc1ccc(F)c2cc(C)n(CCNc3cc(-c4ccc(C(=O)O)c(CC(C)C)c4)ncn3)c12` [compound 539], the IC50 came to 0.948 µM against EP4 and 0.16 µM against EP2.

As to `COc1ccc(F)c2c1cc(C)n2CCNc1cc(-c2cc(C(F)(F)F)c(C(=O)O)s2)nc(C)n1` [compound 540], the IC50 at EP4 amounted to 0.023 µM; at EP2, 0.018 µM.
